Results taken from patent EP0275431A1, “Novel anthracycline derivatives, a process for preparing same and their use as medicaments” (MICROBIAL CHEMISTRY RESEARCH FOUNDATION, priority 1986, dated 1988).
Converted amounts (≈) assume the structure as drawn.

Key:
[1] = Solubility in phosphate buffer solution (pH 7.4) at room temperature; assay type: physicochemical; conditions: aqueous buffer
Experimental: The phosphate buffer solution was prepared by mixing 0.05M potassium dihydrogenphosphate (KH2PO4) with an aqueous solution of sodium hydroxide.

[2] = system: mouse leukemia L-1210 cells; assay: Antitumor activity: increase of life span of mice transplanted intraperitoneally with leukemia L-1210 cells; conditions: beginning 24 hours after transplantation, observed for 30 days, CDF mice
Experimental: To assess the antitumor activity of the compounds of this invention against tumors in test animals, 1 x 10^5 mouse leukemia L-1210 cells mouse were transplanted intraperitoneally to CDF, mice. […] The survival time, in days, of the compound-treated group (T) was calculated, and that of the control group (C) receiving physiological saline solution alone was also calculated. Then, the increase of life span (T/C, %) was determined.

[3] = Dose 0.15 mg/kg/day intraperitoneally for 9 consecutive days
[4] = Dose 0.3 mg/kg/day intraperitoneally for 9 consecutive days
[5] = Dose 0.6 mg/kg/day intraperitoneally for 9 consecutive days
[6] = Dose 1.25 mg/kg/day intraperitoneally for 9 consecutive days
[7] = Dose 2.5 mg/kg/day intraperitoneally for 9 consecutive days
[8] = Dose 5 mg/kg/day intraperitoneally for 9 consecutive days

SMILES | solubility [1] [mg/mL] | Increase of life span (T/C, %) [2, 3] [%] | Increase of life span (T/C, %) [2, 4] [%] | Increase of life span (T/C, %) [2, 5] [%] | Increase of life span (T/C, %) [2, 6] [%] | Increase of life span (T/C, %) [2, 7] [%] | Increase of life span (T/C, %) [2, 8] [%]
CCCCC(=O)OCC(=O)C1(O)Cc2c(O)c3c(c(O)c2C(OC2OC(C)C(O)C(O)C2F)C1)C(=O)c1c(OC)cccc1C3=O [Compound 3 of Example 1(b), 7-0-(2.6-dideoxy-2-fluoro-α-L-talopyranosyl) adriamycinone 14-0-valerate] | < 1 | 135 | 135 | >353 | >353 | >282 | > 306
COc1cccc2c1C(=O)c1c(O)c3c(c(O)c1C2=O)CC(O)(C(=O)COC(=O)CCC(=O)O)CC3OC1OC(C)C(O)C(O)C1F [Compound 5 of Example 2(b), 7-0-(2,6-dideoxy-2-fluoro-a-L-talopyranosyl) adriamycinone 14-0-hemisuccinate] | 25 (≈ 37.7 mM) |  | 124 | >124 | >292 | >353 | > 353
COc1cccc2c1C(=O)c1c(O)c3c(c(O)c1C2=O)CC(O)(C(=O)COC(=O)CCCC(=O)O)CC3OC1OC(C)C(O)C(O)C1F [Compound 7 of Example 3(b), 7-0-(2.6-dideoxy-2-fluoro-a-L-talopyranosyl) adriamycinone 14-0-hemiglutarate] | 26 (≈ 38.4 mM) | 129 | 129 | >235 | 282 | >294 | > 306
COc1cccc2c1C(=O)c1c(O)c3c(c(O)c1C2=O)CC(O)(C(=O)COC(=O)CCCCC(=O)O)CC3OC1OC(C)C(O)C(O)C1F [Compound 9 of Example 4(b), 7-0-(2.6-dideoxy-2-fluoro-a-L-talopyranosyl) adriamycinone 14-0-hemiadipate] | 33 (≈ 47.8 mM) | 112 | 141 | 165 | 265 | >353 | >353
COc1cccc2c1C(=O)c1c(O)c3c(c(O)c1C2=O)CC(O)(C(=O)COC(=O)CCCCCC(=O)O)CC3OC1OC(C)C(O)C(O)C1F [Compound 11 of Example 5(b), 7-0-(2,6-dideoxy-2-fluoro-α-L-talopyranosyl) adriamycinone 14-0-hemipimelate] | 33 (≈ 46.8 mM) | 165 | 171 | 176 | >294 | >271 | >353
COc1cccc2c1C(=O)c1c(O)c3c(c(O)c1C2=O)CC(O)(C(=O)COC(=O)CCCCCCC(=O)O)CC3OC1OC(C)C(O)C(O)C1F [Compound 13 of Example 6(b), 7-0-(2,6-dideoxy-2-fluoro-α-L-talopyranosyl) adriamycinone 14-0-hemisuberate] | 30 (≈ 41.7 mM) |  |  |  |  |  | 
COc1cccc2c1C(=O)c1c(O)c3c(c(O)c1C2=O)CC(O)(C(=O)CO)CC3OC1OC(C)C(O)C(O)C1F [Control, 7-O-(2,6-dideoxy-2-fluoro-α-L-talopyranosyl)adriamycinone, reference compound] | < 1 |  |  |  |  |  | 
